Structures can show the parent of a compound that is named as a salt.
Legend:
[1] = molecular target: PI3Kδ (p110δ/p85α) Recombinant Human Protein (Homo sapiens (Human), UniProt O00329); assay: PI3Kδ Scintillation Proximity Assay; assay type: biochemical
Summary of the method: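 IC50 was fitted to percent solvent-control activity from SPA scintillation counts after WGA bead capture of 33P-labelled lipid product. Reaction: 120 min, room temperature, 3.4 nM p110δ/p85α, 20 μM PIP2, 2 μM ATP with tracer, MOPS pH 6.7 buffer containing MgCl2, DTT, CHAPS, 2% DMSO.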

[2] = molecular target: PI3Kγ (p110γ) Recombinant Human Protein (Homo sapiens (Human), UniProt P48736); assay: PI3K-γ Scintillation Proximity Assay; assay type: biochemical; settings: read-out: PI3Kγ IC50
Summary of the method: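 Radiometric SPA readout: […] bound to WGA beads after overnight shaking, IC50 derived from % activity of DMSO control. Reaction used human p110γ, 2 μM ATP, 20 μM PIP2, pH 6.7 MOPS buffer with MgCl2, DTT, CHAPS, 2% DMSO, room temperature.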

[3] = system: Phosphorylated Ribosomal Protein S6 (RPS6); assay: THP-1 RPS6 ELISA Assay; assay type: cell-based, Human; settings: THP-1 cells; read-out: PI3Kγ_THP1_RPS6_ELISA IC50
Summary of the method: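 IC50 values come from a curve of percent inhibition against log compound concentration, using phospho-RPS6 ELISA (450 nm) on THP-1 lysates. Cells were serum-starved overnight, exposed to compound for 2 h at 37 °C, then challenged 15 min with 10 nM MCP-1.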

PI3Kδ (p110δ/p85α) Recombinant Human Protein, sequence (O00329 whole entry): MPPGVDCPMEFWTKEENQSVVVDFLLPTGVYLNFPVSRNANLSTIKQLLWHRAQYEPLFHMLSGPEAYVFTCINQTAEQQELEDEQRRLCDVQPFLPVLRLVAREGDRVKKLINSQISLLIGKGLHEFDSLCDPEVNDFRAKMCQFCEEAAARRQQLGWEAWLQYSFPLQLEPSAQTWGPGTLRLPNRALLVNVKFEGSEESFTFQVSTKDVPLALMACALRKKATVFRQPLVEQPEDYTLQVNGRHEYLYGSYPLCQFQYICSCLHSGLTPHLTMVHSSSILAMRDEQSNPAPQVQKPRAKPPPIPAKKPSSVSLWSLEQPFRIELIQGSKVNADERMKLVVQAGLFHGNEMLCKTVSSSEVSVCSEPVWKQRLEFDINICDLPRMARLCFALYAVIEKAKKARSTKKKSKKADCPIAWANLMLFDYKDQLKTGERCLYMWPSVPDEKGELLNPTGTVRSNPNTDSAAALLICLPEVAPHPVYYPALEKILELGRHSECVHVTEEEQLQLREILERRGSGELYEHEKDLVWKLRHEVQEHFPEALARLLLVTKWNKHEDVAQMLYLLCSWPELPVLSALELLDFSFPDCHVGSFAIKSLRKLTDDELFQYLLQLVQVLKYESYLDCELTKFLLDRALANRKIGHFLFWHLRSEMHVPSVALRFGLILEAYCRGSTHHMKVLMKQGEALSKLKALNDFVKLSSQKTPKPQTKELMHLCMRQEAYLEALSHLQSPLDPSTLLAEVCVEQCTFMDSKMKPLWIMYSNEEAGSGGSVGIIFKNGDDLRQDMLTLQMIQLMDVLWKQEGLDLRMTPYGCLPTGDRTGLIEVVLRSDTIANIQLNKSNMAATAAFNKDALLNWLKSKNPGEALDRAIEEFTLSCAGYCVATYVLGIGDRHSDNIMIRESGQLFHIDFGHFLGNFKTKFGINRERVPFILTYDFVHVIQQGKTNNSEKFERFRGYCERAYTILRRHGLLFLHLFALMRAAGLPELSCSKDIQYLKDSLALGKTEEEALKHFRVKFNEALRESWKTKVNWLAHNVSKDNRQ
PI3Kδ (p110δ/p85α) Recombinant Human Protein, sequence (P27986 whole entry partner): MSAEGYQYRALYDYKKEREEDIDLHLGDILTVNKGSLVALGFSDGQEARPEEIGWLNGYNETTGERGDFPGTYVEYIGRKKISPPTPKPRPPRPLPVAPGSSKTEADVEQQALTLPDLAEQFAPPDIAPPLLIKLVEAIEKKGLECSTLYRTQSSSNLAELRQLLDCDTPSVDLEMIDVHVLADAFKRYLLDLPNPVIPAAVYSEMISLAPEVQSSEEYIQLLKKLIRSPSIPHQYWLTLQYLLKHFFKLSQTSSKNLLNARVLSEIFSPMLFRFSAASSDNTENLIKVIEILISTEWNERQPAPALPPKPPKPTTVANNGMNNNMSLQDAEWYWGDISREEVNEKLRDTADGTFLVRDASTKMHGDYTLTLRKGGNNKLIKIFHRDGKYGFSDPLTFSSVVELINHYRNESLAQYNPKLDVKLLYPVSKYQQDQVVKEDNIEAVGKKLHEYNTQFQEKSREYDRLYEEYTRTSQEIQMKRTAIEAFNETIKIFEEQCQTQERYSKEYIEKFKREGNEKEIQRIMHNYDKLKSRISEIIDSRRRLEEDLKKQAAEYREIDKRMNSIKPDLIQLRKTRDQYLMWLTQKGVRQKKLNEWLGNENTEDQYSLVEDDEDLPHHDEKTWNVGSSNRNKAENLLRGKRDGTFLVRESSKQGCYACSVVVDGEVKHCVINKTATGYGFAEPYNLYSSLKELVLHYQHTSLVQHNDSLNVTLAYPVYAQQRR
PI3Kγ (p110γ) Recombinant Human Protein, sequence (P48736 whole entry): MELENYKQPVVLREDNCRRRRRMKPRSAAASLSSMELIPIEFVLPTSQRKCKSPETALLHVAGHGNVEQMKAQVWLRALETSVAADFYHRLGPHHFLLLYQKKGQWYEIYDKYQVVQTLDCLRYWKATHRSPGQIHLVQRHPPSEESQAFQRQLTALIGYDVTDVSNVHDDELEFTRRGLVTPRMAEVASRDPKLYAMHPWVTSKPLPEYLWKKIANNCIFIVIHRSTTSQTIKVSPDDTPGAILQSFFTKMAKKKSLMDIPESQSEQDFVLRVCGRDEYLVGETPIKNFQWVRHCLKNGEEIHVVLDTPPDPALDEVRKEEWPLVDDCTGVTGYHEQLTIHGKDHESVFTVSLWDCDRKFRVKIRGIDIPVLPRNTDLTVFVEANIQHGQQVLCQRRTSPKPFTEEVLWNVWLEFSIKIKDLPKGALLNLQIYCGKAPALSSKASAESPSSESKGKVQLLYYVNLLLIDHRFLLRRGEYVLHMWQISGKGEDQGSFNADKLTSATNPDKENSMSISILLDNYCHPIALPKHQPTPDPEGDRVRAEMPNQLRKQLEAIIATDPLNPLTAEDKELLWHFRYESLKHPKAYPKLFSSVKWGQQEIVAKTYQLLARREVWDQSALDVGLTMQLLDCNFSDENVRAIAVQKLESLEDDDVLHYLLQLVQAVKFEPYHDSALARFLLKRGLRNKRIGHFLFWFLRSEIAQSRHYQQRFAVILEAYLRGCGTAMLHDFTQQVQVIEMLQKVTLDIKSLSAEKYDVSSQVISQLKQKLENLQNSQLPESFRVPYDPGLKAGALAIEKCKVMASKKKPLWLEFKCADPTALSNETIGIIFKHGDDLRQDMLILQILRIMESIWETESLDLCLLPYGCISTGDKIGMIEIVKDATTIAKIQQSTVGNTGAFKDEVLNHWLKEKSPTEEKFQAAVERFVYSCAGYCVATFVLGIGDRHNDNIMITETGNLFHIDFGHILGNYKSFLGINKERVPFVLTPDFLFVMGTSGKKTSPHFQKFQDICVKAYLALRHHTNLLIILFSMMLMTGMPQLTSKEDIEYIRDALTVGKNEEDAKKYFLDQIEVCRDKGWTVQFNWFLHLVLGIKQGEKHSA

Compound	IC50 [1] [nM]	IC50 [2] [nM]	IC50 [3] [nM]
Cc1ccc(S(=O)(=O)NCC2(C)COC2)cc1-c1cnc2c(N)nc(C(F)(F)F)nn12 [Example 318, 3-(4-Amino-2-(trifluoromethyl)imidazo[1,2-f][1,2,4]triazin-7-yl)-4-methyl-N-((3-methyloxetan-3-yl)methyl)benzenesulfonamide trifluoroacetate salt]	100 to 500	< 100	< 100
Cc1ccc(S(=O)(=O)NC23CC(CO)(C2)C3)cc1-c1cnc2c(N)nc(C(F)(F)F)nn12 [Example 319, 3-(4-Amino-2-(trifluoromethyl)imidazo[1,2-f][1,2,4]triazin-7-yl)-N-(3-(hydroxymethyl)bicyclo[1.1.1]pentan-1-yl)-4-methylbenzenesulfonamide]	100 to 500	< 100	< 100
Cc1ccc(S(=O)(=O)NC2CN(C)C2)cc1-c1cnc2c(N)nc(C(F)(F)F)nn12 [Example 322, 3-(4-Amino-2-(trifluoromethyl)imidazo[1,2-f][1,2,4]triazin-7-yl)-4-methyl-N-(1-methylazetidin-3-yl)benzenesulfonamide]	100 to 500	< 100	< 100
Cc1ccc(S(=O)(=O)N[C@H]2C[C@H](CO)C2)cc1-c1cnc2c(N)nc(C(F)(F)F)nn12 [Example 323, 3-(4-Amino-2-(trifluoromethyl)imidazo[1,2-f][1,2,4]triazin-7-yl)-N-((1r,3r)-3-(hydroxymethyl)cyclobutyl)-4-methylbenzenesulfonamide trifluoroacetate salt]	100 to 500	< 100	< 100
Cc1ccc(S(=O)(=O)NC23CC(Cn4ccnc4)(C2)C3)cc1-c1cnc2c(N)nc(C(F)(F)F)nn12 [Example 324, N-(3-((1H-Imidazol-1-yl)methyl)bicyclo[1.1.1]pentan-1-yl)-3-(4-amino-2-(trifluoromethyl)imidazo[1,2-f][1,2,4]triazin-7-yl)-4-methylbenzenesulfonamide trifluoroacetate salt]	100 to 500	< 100	< 100
CC(=O)N1CC(O)(CNS(=O)(=O)c2ccc(C)c(-c3cnc4c(N)nc(C(F)(F)F)nn34)c2)C1 [Example 325, N-((l-Acetyl-3-hydroxyazetidin-3-yl)methyl)-3-(4-amino-2-(trifluoromethyl)imidazo[1,2-f][1,2,4]triazin-7-yl)-4-methylbenzenesulfonamide trifluoroacetate salt]	< 100	< 100	100 to 500
Cc1ccc(S(=O)(=O)N[C@H]2CC[C@](C)(O)CC2)cc1-c1cnc2c(N)nc(C(F)(F)F)nn12 [Example 327, 3-(4-Amino-2-(trifluoromethyl)imidazo[1,2-f][1,2,4]triazin-7-yl)-N-((1r,4r)-4-hydroxy-4-methylcyclohexyl)-4-methylbenzenesulfonamide trifluoroacetate salt]	100 to 500	< 100	100 to 500
Cc1ccc(S(=O)(=O)NC23CCC(CO)(C2)C3)cc1-c1cnc2c(N)nc(C(F)(F)F)nn12 [Example 328, 3-(4-Amino-2-(trifluoromethyl)imidazo[1,2-f][1,2,4]triazin-7-yl)-N-(4-(hydroxymethyl)bicyclo[2.1.1]hexan-1-yl)-4-methylbenzenesulfonamide trifluoroacetate salt]	100 to 500	< 100	< 100
Cc1ccc(S(=O)(=O)NC2CN(C3COC3)C2)cc1-c1cnc2c(N)nc(C(F)(F)F)nn12 [Example 337, 3-(4-Amino-2-(trifluoromethyl)imidazo[1,2-f][1,2,4]triazin-7-yl)-4-methyl-N-(1-(oxetan-3-yl)azetidin-3-yl)benzenesulfonamide trifluoroacetate salt]	100 to 500	< 100	100 to 500

Continued, values first:

IC50 [1] [nM]	IC50 [2] [nM]	IC50 [3] [nM]	Compound
100 to 500	< 100	100 to 500	Cc1ccc(S(=O)(=O)NC2CN(CCO)C2)cc1-c1cnc2c(N)nc(C(F)(F)F)nn12 [Example 329, 3-(4-Amino-2-(trifluoromethyl)imidazo[1,2-f][1,2,4]triazin-7-yl)-N-(1-(2-hydroxyethyl)azetidin-3-yl)-4-methylbenzenesulfonamide trifluoroacetate salt]
< 100	< 100	< 100	Cc1ccc(S(=O)(=O)NC23CC(C#N)(C2)C3)cc1-c1cnc2c(N)nc(C(F)(F)F)nn12 [Example 330, 3-(4-Amino-2-(trifluoromethyl)imidazo[1,2-f][1,2,4]triazin-7-yl)-N-(3-cyanobicyclo[1.1.1]pentan-1-yl)-4-methylbenzenesulfonamide trifluoroacetate salt]
100 to 500	< 100	100 to 500	Cc1ccc(S(=O)(=O)NC23CC(CF)(C2)C3)cc1-c1cnc2c(N)nc(C(F)(F)F)nn12 [Example 331, 3-(4-Amino-2-(trifluoromethyl)imidazo[1,2-f][1,2,4]triazin-7-yl)-N-(3-(fluoromethyl)bicyclo[1.1.1]pentan-1-yl)-4-methylbenzenesulfonamide trifluoroacetate salt]
100 to 500	< 100	< 100	Cc1ccc(S(=O)(=O)NC23CC(Cn4cccn4)(C2)C3)cc1-c1cnc2c(N)nc(C(F)(F)F)nn12 [Example 332, N-(3-((1H-pyrazol-1-yl)methyl)bicyclo[1.1.1]pentan-1-yl)-3-(4-amino-2-(trifluoromethyl)imidazo[1,2-f][1,2,4]triazin-7-yl)-4-methylbenzenesulfonamide trifluoroacetate salt]
100 to 500	< 100	< 100	Cc1ccc(S(=O)(=O)NC23CC(F)(C2)C3)cc1-c1cnc2c(N)nc(C(F)(F)F)nn12 [Example 333, 3-(4-Amino-2-(trifluoromethyl)imidazo[1,2-f][1,2,4]triazin-7-yl)-N-(3-fluorobicyclo[1.1.1]pentan-1-yl)-4-methylbenzenesulfonamide trifluoroacetate salt]
100 to 500	< 100	< 100	Cc1ccc(S(=O)(=O)NCC2(CO)CCOCC2)cc1-c1cnc2c(N)nc(C(F)(F)F)nn12 [Example 334, 3-(4-Amino-2-(trifluoromethyl)imidazo[1,2-f][1,2,4]triazin-7-yl)-N-((4-(hydroxymethyptetrahydro-2H-pyran-4-yl)methyl)-4-methylbenzenesulfonamide trifluoroacetate salt]
100 to 500	< 100	100 to 500	Cc1ccc(S(=O)(=O)NCC2(O)CNC2)cc1-c1cnc2c(N)nc(C(F)(F)F)nn12 [Example 335, 3-(4-Amino-2-(trifluoromethyl)imidazo[1,2-f][1,2,4]triazin-7-yl)-N-((3-hydroxyazetidin-3-yl)methyl)-4-methylbenzenesulfonamide trifluoroacetate salt]
100 to 500	< 100	100 to 500	Cc1ccc(S(N)(=O)=O)cc1-c1cnc2c(N)nc(C(F)(F)F)nn12 [Example 336, 3-(4-Amino-2-(trifluoromethyl)imidazo[1,2-f][1,2,4]triazin-7-yl)-4-methylbenzenesulfonamide trifluoroacetate salt]

— patent US10479795B2 (Incyte Corporation, priority 2016, dated 2019)
